Assay results: patent US9961896B2, “Cleaning liquid” (priority 2013, dated 2018)

Experiments:
Assay in all cases: EN 1276 bactericidal activity
Format in all cases: cell-based
Conditions in all cases: diluted to 1:20 v/v; 5 minutes at 20° C.; dirty conditions
[1] = system: Staphylococcus aureus (NCTC 10788)
[2] = system: Enterococcus hirae (NCIMB 8192)
[3] = system: Escherichia coli (NCTC 10418)
[4] = system: Pseudomonas aeruginosa (NCI MB 10421)

Measured: passes the requirements of EN 1276 for bactericidal activity

CCCCCCCCCC[N+](C)(C)CCCCCCCCCC.[Cl-] [Acticide DDQ50, Didecyl Dimethyl Ammonium Chloride]
does not pass: all assays above

O=[N+]([O-])C(Br)(CO)CO [Acticide L, Bronopol]
does not pass: all assays above

Cc1cc(O)ccc1Cl [Acticide PCMC, P-chloro-m-cresol]
does not pass: all assays above

Benzalkonium chloride [Acticide BAC50M]
does not pass: all assays above
